This is an account of results in US20230310431A1, “COMPOSITION FOR PREVENTING OR TREATING LIVER FIBROSIS, CONTAINING TRIAZOLE DERIVATIVE AS ACTIVE INGREDIENT” (INDUSTRY-ACADEMIC COOPERATION FOUNDTION, YONSEI UNIVERSITY, priority 2020, published 2023).

For series [1], the system named is Human hepatic stellate LX-2 cells. The experiment in a line: Cytotoxicity measurement (WST assay). Type of series: cell-based. To be noted: 48 hours. On the procedure: Human hepatic stellate LX-2 cells were seeded in a 96-well plate with DMEM (Welgene) containing 2% fetal bovine serum (Gibco) and 1% penicillin-streptomycin (Gibco), and cultured in an incubator for 24 hours at 37° C. under 5% CO2. Next, the cells were treated with ML323 at concentrations of 0, 1, 5, 10 and 25 μM. After 48 hours, 10 μl of EZ-Cytox was added to the cell culture medium and reacted for 30 minutes, and the absorbance at 450 nm was measured using a microplate reader.
Cytotoxicity measurement (WST assay)

For series [2], the system named is COL1A1. The experiment in a line: Measurement of cell fibrosis: COL1A1 mRNA in TGF-β-activated LX-2 cells. Format: cell-based, Human. The following applies: TGF-β 2.5 ng/ml, ML323 1, 10, 25 μM, 24 hours, versus cells not treated with ML323, FIG. 2. The protocol: Human hepatic stellate LX-2 cells were seeded in a 6-well plate with DMEM (Welgene) containing 2% fetal bovine serum (Gibco) and 1% penicillin-streptomycin (Gibco), and cultured in an incubator for 24 hours at 37° C. under 5% CO2. Thereafter, the medium was replaced with serum-free DMEM, and the cells were starved for 24 hours. Next, the cells were activated by treatment with TGF-β at a concentration of 2.5 ng/ml, and at the same time, the cells were treated with ML323 at concentrations of 0, 1, 10 and 25 μM. After 24 hours, the cells were harvested and used for gene expression analysis.
(§1) cDNA was synthesized from the extracted RNA using ReverTraAce RT master mix (TOYOBO), and then gene expression changes were measured using a real-time PCR system (ABI).

The test system of series [3] is fatty liver mouse model. Description: Measurement of liver weight change in fatty liver mouse model. Format: in vivo, C57BL/6 mice. The following applies: 50 mg/kg oral twice a week for 7 weeks, FIG. 3. The protocol:
(§2) Twenty-four 6-week-old C57BL/6 mice were acclimated for 1 week and then divided into two groups. One group (12 mice) was fed a normal diet, and the other group (12 mice) was fed a high-fat diet for 9 weeks. After 9 weeks, each of the normal diet group and the high-fat diet group was subdivided into two groups, and each of vehicle and 50 mg/kg of ML323 was orally administered thereto twice a week for 7 weeks. Normal diet and high-fat diet were continued during oral administration.
After the experimental period was over, mice were sacrificed, and liver tissues were harvested and weighed.

Series [4] relates to fatty liver mouse model. The experiment in a line: Measurement of liver function indicators (AST, ALT) in blood. The following applies: high-fat diet group, 50 mg/kg oral twice a week for 7 weeks, versus vehicle-administered control group, FIG. 4. Format: in vivo, C57BL/6 mice. On the procedure:
as §2
After the experimental period was over, blood was collected from each mouse, and after 30 minutes, the supernatant (plasma) was separated from the blood by centrifugation at 2,000 rpm for 15 minutes. The separated plasma was analyzed by Seoul Clinical Laboratories (SCL) to measure the levels of AST and ALT, which are indicators of liver function.

Series [5] relates to COL1A1. Description: Expression of hepatic fibrosis inducers in liver tissue (real-time PCR): COL1A1. Format: in vivo, C57BL/6 mice. The following applies: high-fat diet group, 50 mg/kg oral, FIG. 5A. The protocol:
as §2
(§3) The tissue harvested from each mouse was added to 1 ml of Easy blue (Intron) and then minced using a homogenizer. 200 μl of chloroform was added to and mixed well with the tissue, and the mixture was incubated for 3 minutes and then centrifuged at 13,200 rpm for 15 minutes at 4° C. After centrifugation, only the supernatant was transferred to a fresh tube, and the same amount of isopropyl alcohol was added thereto and mixed well therewith. After incubation for 10 minutes, centrifugation was performed at 13,200 rpm for 10 minutes at 4° C. After removing the supernatant, the RNA pellet was washed with 70% ethanol and centrifuged at 13,200 rpm for 5 minutes at 4° C. […]
as §1
Background: Real-time PCR tracks product formation cycle by cycle.

The test system of the next series is CCL2. Description: Expression of inflammatory factors in liver tissue (real-time PCR): CCL2. Type of series: in vivo, C57BL/6 mice. The following applies: high-fat diet group, 50 mg/kg oral, versus control group, FIG. 5B. On the procedure: as §2, §3, §1
The next series deals with TGF-β. Description: Expression of inflammatory factors in liver tissue (real-time PCR): TGF-β. Format: in vivo, C57BL/6 mice. To be noted: high-fat diet group, 50 mg/kg oral, versus control group, FIG. 5B. The protocol: as §2, §3, §1
The next series deals with F4/80. The experiment in a line: Expression of inflammatory factors in liver tissue (real-time PCR): F4/80. Type of series: in vivo, C57BL/6 mice. The following applies: high-fat diet group, 50 mg/kg oral, versus control group, FIG. 5B. On the procedure: as §2, §3, §1
Series [6] deals with fatty liver mouse model. The experiment in a line: Immunohistochemical analysis of liver tissue (Sirius red, a-SMA), fatty liver mouse model. Format: in vivo, C57BL/6 mice. The following applies: 50 mg/kg oral, FIG. 6. The protocol:
as §2
The liver tissue harvested from each mouse was fixed in a 10% formalin solution, and a paraffin block and a slide were prepared using each liver tissue that had been fixed. The degree of fibrosis in liver tissue was measured using Sirius red solution staining and a-SMA immunostaining.

The next series deals with CDAA diet mice. Description: Immunohistochemical analysis of liver tissue (H&E, F4/80, a-SMA), CDAA diet non-alcoholic fatty liver model. The following applies: CDAA diet group, 50 mg/kg oral, FIG. 7. Format: in vivo, C57BL/6 mice. The protocol: In addition, ten 6-week-old C57BL/6 mice were acclimated for 1 week and then fed CDAA (choline-deficient L-amino-defined) for 8 weeks to induce non-alcoholic fatty liver. Thereafter, the 10 mice were divided into two groups, to which a vehicle and 50 mg/kg of ML-323 were orally administered, respectively, and then liver tissues were stained with H&E, F4/80, and a-SMA.

With `Cc1cnc(-c2ccccc2C(C)C)nc1NCc1ccc(-n2ccnn2)cc1` [ML323, N-(4-(1H-1,2,3-triazol-1-yl)benzyl)-2-(24 sopropylphenyl)-5-methylpyrimidin-4-amine], the “viability of LX-2 cells versus untreated cells” value in [1] (0, 1, 5, 10 and 25 μM, FIG. 1) was “no significant difference in viability”. In series [1] (all treatment concentrations (up to 25 μM)), the cytotoxicity entry is reported as “did not exhibit cytotoxicity”. For the same compound, the “mRNA expression of COL1A1” value with COL1A1 [2] was “significantly lower”. Further, in the series with fatty liver mouse model [3] (high-fat diet group), the liver weight entry is “decreased”. Besides, in the series on fatty liver mouse model [3] (high-fat diet group, versus control group), the “accumulation of fat in liver tissue” value was “significantly decreased”. Moreover, in the series on fatty liver mouse model [3] (normal diet group, versus control group), the “liver weight or size” value is on record as “no significant difference in liver weight or size”. In the series with fatty liver mouse model [4], the “decrease of ALT level in the blood” value is reported as 70% and the “decrease of AST level in the blood” value worked out at 40%. Besides, the “mRNA expression level of the COL1A1 gene in liver tissue” value with COL1A1 [5] was “greatly decreased”. Moreover, the “mRNA expression level of CCL2 in liver tissue” value with CCL2 was “significantly decreased”. In the series on TGF-β, the “mRNA expression level of TGF-β in liver tissue” value is “significantly decreased”. Besides, the “mRNA expression level of F4/80 in liver tissue” value with F4/80 is listed as “significantly decreased”. Besides, the “hepatic fibrosis in liver tissue (Sirius red staining and a-SMA immunostaining)” value in the series on fatty liver mouse model [6] is listed as “significantly decreased”. In the series on CDAA diet mice, the “inflammation and hepatic fibrosis in liver tissue (H&E staining, f4/80 and a-SMA immunostaining)” value is listed as “significantly decreased”.
